Measurements reported in publication PMC11277489, “Novel Piperazine Derivatives of Vindoline as Anticancer Agents” (International Journal of Molecular Sciences, 2024).

Key:
CCRF-CEM = test: NCI60 one-dose screen (10 μM), Leukemia; type: cell-based; settings: Homo sapiens, 10 μM, Leukemia, read-out: Growth percent rate
HL-60(TB) = test: NCI60 one-dose screen (10 μM), Leukemia; type: cell-based; settings: Homo sapiens; 10 μM; HL-60(TB), Leukemia; read-out: Growth percent rate
K-562 = test: NCI60 one-dose screen (10 μM), Leukemia; type: cell-based; settings: Homo sapiens, K562; 10 μM; K-562, Leukemia; read-out: Growth percent rate
MOLT-4 = test: NCI60 one-dose screen (10 μM), Leukemia; type: cell-based, human
RPMI-8226 = test: NCI60 one-dose screen (10 μM), Leukemia; type: cell-based; settings: Homo sapiens; 10 μM; RPMI-8226, Leukemia; read-out: Growth percent rate
A549/ATCC = test: NCI60 one-dose screen (10 μM), Non-small Cell Lung Cancer; type: cell-based; settings: Homo sapiens; 10 μM; A549/ATCC, Non-small Cell Lung Cancer; read-out: Growth percent rate
EKVX = test: as above; type: cell-based; settings: Homo sapiens, 10 μM, Non-small Cell Lung Cancer, read-out: Growth percent rate
HOP-62 = test: as above; type: cell-based; settings: Homo sapiens; 10 μM; HOP-62, Non-small Cell Lung Cancer; read-out: Growth percent rate
NCI-H23 = test: as above; type: cell-based; settings: Homo sapiens; 10 μM; NCI-H23, Non-small Cell Lung Cancer; read-out: Growth percent rate
NCI-H322M = test: as above; type: cell-based; settings: Homo sapiens, 10 μM, Non-small Cell Lung Cancer, read-out: Growth percent rate
NCI-H460 = test: as above; type: cell-based; settings: Homo sapiens; 10 μM; NCI-H460, Non-small Cell Lung Cancer; read-out: Growth percent rate
NCI-H522 = test: as above; type: cell-based; settings: Homo sapiens; 10 μM; NCI-H522, Non-small Cell Lung Cancer; read-out: Growth percent rate
COLO 205 = test: NCI60 one-dose screen (10 μM), Colon Cancer; type: cell-based, human; settings: Homo sapiens; 10 μM; COLO 205, Colon Cancer; read-out: Growth percent rate
HCC-2998 = test: NCI60 one-dose screen (10 μM), Colon Cancer; type: cell-based; settings: Homo sapiens; 10 μM; HCC-2998, Colon Cancer; read-out: Growth percent rate
HCT-116 = test: NCI60 one-dose screen (10 μM), Colon Cancer; type: cell-based; settings: Homo sapiens; 10 μM; HCT-116, Colon Cancer; read-out: Growth percent rate
HCT-15 = test: NCI60 one-dose screen (10 μM), Colon Cancer; type: cell-based; settings: Homo sapiens; 10 μM; HCT-15, Colon Cancer; read-out: Growth percent rate
HT29 = test: NCI60 one-dose screen (10 μM), Colon Cancer; type: cell-based; settings: Homo sapiens, HT-29; 10 μM; HT29, Colon Cancer; read-out: Growth percent rate
KM12 = test: NCI60 one-dose screen (10 μM), Colon Cancer; type: cell-based, human; settings: Homo sapiens; 10 μM; KM12, Colon Cancer; read-out: Growth percent rate
SW-620 = test: NCI60 one-dose screen (10 μM), Colon Cancer; type: cell-based; settings: Homo sapiens; 10 μM; SW-620, Colon Cancer; read-out: Growth percent rate
SF-295 = test: NCI60 one-dose screen (10 μM), CNS Cancer; type: cell-based; settings: Homo sapiens; 10 μM; SF-295, CNS Cancer; read-out: Growth percent rate
SF-539 = test: NCI60 one-dose screen (10 μM), CNS Cancer; type: cell-based, human; settings: Homo sapiens; 10 μM; SF-539, CNS Cancer; read-out: Growth percent rate
SNB-19 = test: NCI60 one-dose screen (10 μM), CNS Cancer; type: cell-based; settings: Homo sapiens; 10 μM; SNB-19, CNS Cancer; read-out: Growth percent rate
SNB-75 = test: NCI60 one-dose screen (10 μM), CNS Cancer; type: cell-based, human; settings: Homo sapiens; 10 μM; SNB-75, CNS Cancer; read-out: Growth percent rate
U251 = test: NCI60 one-dose screen (10 μM), CNS Cancer; type: cell-based; settings: Homo sapiens, U-251; 10 μM; U251, CNS Cancer; read-out: Growth percent rate
MALME-3M = test: NCI60 one-dose screen (10 μM), Melanoma; type: cell-based; settings: Homo sapiens; 10 μM; MALME-3M, Melanoma; read-out: Growth percent rate
M14 = test: NCI60 one-dose screen (10 μM), Melanoma; type: cell-based; settings: Homo sapiens; 10 μM; M14, Melanoma; read-out: Growth percent rate
MDA-MB-435 = test: NCI60 one-dose screen (10 μM), Melanoma; type: cell-based; settings: Homo sapiens; 10 μM; MDA-MB-435, Melanoma; read-out: Growth percent rate
SK-MEL-2 = test: NCI60 one-dose screen (10 μM), Melanoma; type: cell-based; settings: Homo sapiens; 10 μM; SK-MEL-2, Melanoma; read-out: Growth percent rate
SK-MEL-28 = test: NCI60 one-dose screen (10 μM), Melanoma; type: cell-based; settings: Homo sapiens; 10 μM; SK-MEL-28, Melanoma; read-out: Growth percent rate
SK-MEL-5 = test: NCI60 one-dose screen (10 μM), Melanoma; type: cell-based, human; settings: Homo sapiens; 10 μM; SK-MEL-5, Melanoma; read-out: Growth percent rate
UACC-257 = test: NCI60 one-dose screen (10 μM), Melanoma; type: cell-based; settings: Homo sapiens; 10 μM; UACC-257, Melanoma; read-out: Growth percent rate
IGROV1 = test: NCI60 one-dose screen (10 μM), Ovarian Cancer; type: cell-based; settings: Homo sapiens, IGROV-1; 10 μM; IGROV1, Ovarian Cancer; read-out: Growth percent rate
OVCAR-3 = test: NCI60 one-dose screen (10 μM), Ovarian Cancer; type: cell-based; settings: Homo sapiens; 10 μM; OVCAR-3, Ovarian Cancer; read-out: Growth percent rate
OVCAR-8 = test: NCI60 one-dose screen (10 μM), Ovarian Cancer; type: cell-based; settings: Homo sapiens; 10 μM; OVCAR-8, Ovarian Cancer; read-out: Growth percent rate
786–0 = test: NCI60 one-dose screen (10 μM), Renal Cancer; type: cell-based; settings: Homo sapiens; 10 μM; 786-0, Renal Cancer; read-out: Growth percent rate
A498 = test: NCI60 one-dose screen (10 μM), Renal Cancer; type: cell-based; settings: Homo sapiens; 10 μM; A498, Renal Cancer; read-out: Growth percent rate
ACHN = test: NCI60 one-dose screen (10 μM), Renal Cancer; type: cell-based; settings: Homo sapiens, 10 μM, Renal Cancer, read-out: Growth percent rate
CAKI-1 = test: NCI60 one-dose screen (10 μM), Renal Cancer; type: cell-based; settings: Homo sapiens; 10 μM; CAKI-1, Renal Cancer; read-out: Growth percent rate
SN12C = test: NCI60 one-dose screen (10 μM), Renal Cancer; type: cell-based; settings: Homo sapiens, 10 μM, Renal Cancer, read-out: Growth percent rate
TK-10 = test: NCI60 one-dose screen (10 μM), Renal Cancer; type: cell-based; settings: Homo sapiens; 10 μM; TK-10, Renal Cancer; read-out: Growth percent rate
MCF7 = test: NCI60 one-dose screen (10 μM), Breast Cancer; type: cell-based; settings: Homo sapiens; 10 μM; MCF7, Breast Cancer; read-out: Growth percent rate
HS 578T = test: NCI60 one-dose screen (10 μM), Breast Cancer; type: cell-based; settings: Homo sapiens; 10 μM; HS 578T, Breast Cancer; read-out: Growth percent rate

`CC[C@]12C=CCN3CC[C@@]4(c5ccc(OC)cc5N(C)[C@H]4[C@@](O)(C(=O)OC)[C@@H]1OC(=O)CCC(=O)N1CCN(C(c4ccc(F)cc4)c4ccc(F)cc4)CC1)[C@@H]32` [Compound 31] gave an activity at 10 µM (CCRF-CEM) of -81.9%, an activity at 10 µM (HL-60(TB)) of -98.4% and an activity at 10 µM (K-562) of 7.65%. For the same compound, the growth percent rate (MOLT-4; 10 μM one-dose, MOLT-4 leukemia, negative = lethality) was −98.81%, the activity at 10 µM (MOLT-4; Homo sapiens, 10 μM, MOLT-4, Leukemia, read-out: Growth percent rate) was -98.8% and the activity at 10 µM (RPMI-8226) was -98.1%. For the same compound, the activity at 10 µM (A549/ATCC) was 1.83%, the activity at 10 µM (EKVX) was -17.8% and the activity at 10 µM (HOP-62) was -57%. For the same compound, the activity at 10 µM (NCI-H23) was -23.4%, the activity at 10 µM (NCI-H322M) was -0.86% and the activity at 10 µM (NCI-H460) was -60.9%. It also gave an activity at 10 µM (NCI-H522) of -22.2%, an activity at 10 µM (COLO 205) of -45% and an activity at 10 µM (HCC-2998) of -66.9%. It also gave an activity at 10 µM (HCT-116) of -32.4%, an activity at 10 µM (HCT-15) of 3.11% and an activity at 10 µM (HT29) of -83.3%. The activity at 10 µM (KM12) was -50.8%, the activity at 10 µM (SW-620) was -37% and the activity at 10 µM (SF-295) was -61.1%. For the same compound, the activity at 10 µM (SF-539) was -38.4%, the activity at 10 µM (SNB-19) was 8.85% and the activity at 10 µM (SNB-75) was -43.5%. The activity at 10 µM (U251) was -15.1%, the activity at 10 µM (MALME-3M) was -16.6% and the activity at 10 µM (M14) was 0.99%. The activity at 10 µM (MDA-MB-435) was -23.3%, the activity at 10 µM (SK-MEL-2) was -85.4% and the activity at 10 µM (SK-MEL-28) was -6.67%. The activity at 10 µM (SK-MEL-5) was -88%, the activity at 10 µM (UACC-257) was -30.8% and the activity at 10 µM (IGROV1) was -92.2%. The activity at 10 µM (OVCAR-3) was -71%, the activity at 10 µM (OVCAR-8) was -13.2% and the activity at 10 µM (786–0) was -40.3%. The activity at 10 µM (A498) was -61.6%, the activity at 10 µM (ACHN) was -35.8% and the activity at 10 µM (CAKI-1) was 1.73%. It also gave an activity at 10 µM (SN12C) of -89.1%, an activity at 10 µM (TK-10) of -32.1% and an activity at 10 µM (MCF7) of -28.7%. It also gave an activity at 10 µM (HS 578T) of -32.6%.
